Results as given in US20080274892A1, “Novel Haloalkylsulfonanilide Derivative, Herbicide, and Method of Use Thereof” (priority 2005, published 2008).

Experiments:
[1] = tested on: bulrush; test: Test Example 1: herbicidal efficacy on rice paddy weeds pre-emergence; format: in vivo, Scirpus juncoides; conditions: 21 days
Experimental: (§1) A 75 cm^2 plastic pot was filled with soil (clay loam) and planted seeds of bulrush which is a rice paddy weed. After covering the top with 75 cm^3 soil mixed with seeds of false pimpernel, the pot was filled with water so that the soil submerged under 5 cm depth of water. The predetermined effective dosage ([…]) of a formulation containing the compound of the present invention prepared according to Formulation Example 1-4 as an active ingredient was diluted in water and added to the pot water surface dropwise. The pot was kept in a hot house for 21 days and the herbicidal efficacy was investigated. The herbicidal efficacy was evaluated according to the following standard by comparing with untreated control. “-” in the table represents test not done.
(§2) The standard of judgment for herbicidal efficacy (degree of growth inhibition) and phytotoxicity 4 . . . 90%-100% of herbicidal efficacy or phytotoxicity 3 . . . 70%-89% of herbicidal efficacy or phytotoxicity 2 . . . 40%-69% of herbicidal efficacy or phytotoxicity 1 . . . 1%-39% of herbicidal efficacy or phytotoxicity 0 . . . 0% of herbicidal efficacy or phytotoxicity

[2] = tested on: false pimpernel; test: as above; format: in vivo, Lindernia pyxidaria; conditions: 21 days
Experimental: as §1, §2

[3] = tested on: barnyard glass; test: Test Example 2: herbicidal efficacy on rice paddy weeds post-emergence; format: in vivo, Echinochloa crus-galli; conditions: 21 days after treatment
Source text: as §2
(§3) A 75 cm^2 plastic pot was filled with soil (clay loam) and planted seeds of barnyard glass and bulrush which is a rice paddy weed. After covering the top with 75 cm^3 soil mixed with seeds of false pimpernel, the pot was filled with water so that the soil submerged under 5 cm depth of water and kept in a hot house. […] The pot was kept in a hot house for 21 days after the treatment and the herbicidal efficacy was investigated and evaluated according to the standard in Test Example 1 by comparing with the untreated control. “-” in the table represents test not done.

[4] = tested on: bulrush; test: as above; format: in vivo, Scirpus juncoides; conditions: 21 days after treatment
Source text: as §2, §3

[5] = tested on: false pimpernel; test: as above; format: in vivo, Lindernia pyxidaria; conditions: 21 days after treatment
Source text: as §2, §3

[6] = tested on: paddy rice plant (cultivar: Nihonbare); test: Test Example 3: phytotoxicity test for transplanted paddy rice plant; format: in vivo; conditions: 21 days after treatment; for Phytotoxicity to paddy rice: transplanted rice; for Phytotoxicity to paddy rice (grade): dosage 1000 g/ha active ingredient, vs untreated control
Experimental: as §2
A 75 cm^2 plastic pot was filled with soil (clay loam), and water was added so that the soil was submerged under 5 cm depth of water. Two paddy rice plant (cultivar: Nihonbare) at two leaves stage were transplanted at the depth of 1 cm and kept in a hot house. […] The pot was kept in a hot house for 21 days after the treatment and the phytotoxicity was investigated and evaluated according to the standard in Test Example 1 by comparing with the untreated control. “-” in the table represents test not done.

[7] = dosage 300 g/ha, post-emergence, one leaf stage
[8] = dosage 1000 g/ha, post-emergence, one leaf stage
[9] = dosage 1000 g/ha, treated 5 days after transplantation
[10] = dosage 1000 g/ha active ingredient, vs untreated control
[11] = dosage 1000 g/ha active ingredient, post-emergence treatment at one leaf stage, vs untreated control
[12] = treated 5 days after transplantation

SMILES | Bulrush pre (herbicidal efficacy grade) ([1]; dosage 300 g/ha) | False pimpernel pre (herbicidal efficacy grade) ([2]; dosage 300 g/ha) | Burnyard grass post (herbicidal efficacy grade) [3, 7] | Bulrush post (herbicidal efficacy grade) [4, 7] | False pimpernel post (herbicidal efficacy grade) [5, 7] | Phytotoxicity to paddy rice ([6]; dosage 300 g/ha) | Bulrush pre (herbicidal efficacy grade) ([1]; dosage 1000 g/ha) | False pimpernel pre (herbicidal efficacy grade) ([2]; dosage 1000 g/ha) | Burnyard grass post (herbicidal efficacy grade) [3, 8] | Bulrush post (herbicidal efficacy grade) [4, 8] | False pimpernel post (herbicidal efficacy grade) [5, 8] | Phytotoxicity to paddy rice [6, 9] | other results
CC(C)CC1(C)CN(Cc2ccccc2NS(=O)(=O)C(F)(F)F)C(=O)O1 (racemic) [Compound 1-103] | 4 (90%-100% of herbicidal efficacy or phytotoxicity) | 4 (90%-100% of herbicidal efficacy or phytotoxicity) | 4 (90%-100% of herbicidal efficacy or phytotoxicity) | 4 (90%-100% of herbicidal efficacy or phytotoxicity) | 4 (90%-100% of herbicidal efficacy or phytotoxicity) | 2 (40%-69% of herbicidal efficacy or phytotoxicity) | – | – | – | – | – | – | –
CC(C)COC(=O)N(c1ccccc1CN1CC(C)(CC(C)C)OC1=O)S(=O)(=O)C(F)(F)F (racemic) [Compound 1-104] | – | – | – | – | – | – | 4 (90%-100% of herbicidal efficacy or phytotoxicity) | 4 (90%-100% of herbicidal efficacy or phytotoxicity) | 4 (90%-100% of herbicidal efficacy or phytotoxicity) | 4 (90%-100% of herbicidal efficacy or phytotoxicity) | 4 (90%-100% of herbicidal efficacy or phytotoxicity) | 2 (40%-69% of herbicidal efficacy or phytotoxicity) | –
CC(C)COC(=O)N(c1ccccc1CN1CC(CNC(=O)OC(C)(C)C)OC1=O)S(=O)(=O)C(F)(F)F (racemic) [Compound 1-107] | 4 (90%-100% of herbicidal efficacy or phytotoxicity) | 4 (90%-100% of herbicidal efficacy or phytotoxicity) | 3 (70%-89% of herbicidal efficacy or phytotoxicity) | 4 (90%-100% of herbicidal efficacy or phytotoxicity) | 1 (1%-39% of herbicidal efficacy or phytotoxicity) | 0 (0% of herbicidal efficacy or phytotoxicity) | – | – | – | – | – | – | –
CCCCC1(C)CN(Cc2ccccc2NS(=O)(=O)C(F)(F)F)C(=O)O1 (racemic) [Compound 1-121] | 4 (90%-100% of herbicidal efficacy or phytotoxicity) | 4 (90%-100% of herbicidal efficacy or phytotoxicity) | 1 (1%-39% of herbicidal efficacy or phytotoxicity) | 4 (90%-100% of herbicidal efficacy or phytotoxicity) | 4 (90%-100% of herbicidal efficacy or phytotoxicity) | 1 (1%-39% of herbicidal efficacy or phytotoxicity) | – | – | – | – | – | – | –
CCCCC1(C)CN(Cc2ccccc2N(C(=O)OCC(C)C)S(=O)(=O)C(F)(F)F)C(=O)O1 (racemic) [Compound 1-123] | – | – | – | – | – | – | 4 (90%-100% of herbicidal efficacy or phytotoxicity) | 4 (90%-100% of herbicidal efficacy or phytotoxicity) | 4 (90%-100% of herbicidal efficacy or phytotoxicity) | 4 (90%-100% of herbicidal efficacy or phytotoxicity) | 4 (90%-100% of herbicidal efficacy or phytotoxicity) | 1 (1%-39% of herbicidal efficacy or phytotoxicity) | –
COCOc1cccc(CN2CC(C)(C)OC2=O)c1NS(=O)(=O)C(F)(F)F [1-212] | – | – | – | – | – | – | – | – | – | – | – | – | Bulrush pre (herbicidal efficacy grade) [1, 10]: 4 (90%-100% of herbicidal efficacy or phytotoxicity); False pimpernel pre (herbicidal efficacy grade) [2, 10]: 1 (1%-39% of herbicidal efficacy or phytotoxicity); Burnyard grass post (herbicidal efficacy grade) [3, 11]: 3 (70%-89% of herbicidal efficacy or phytotoxicity); Bulrush post (herbicidal efficacy grade) [4, 11]: 2 (40%-69% of herbicidal efficacy or phytotoxicity); False pimpernel post (herbicidal efficacy grade) [5, 11]: 2 (40%-69% of herbicidal efficacy or phytotoxicity); Phytotoxicity to paddy rice (grade) [6, 12]: 3 (70%-89% of herbicidal efficacy or phytotoxicity)
CC1(C)CN(Cc2cc3c(cc2NS(=O)(=O)C(F)(F)F)OCO3)C(=O)O1 [1-215] | – | – | – | – | – | – | – | – | – | – | – | – | Bulrush pre (herbicidal efficacy grade) [1, 10]: 2 (40%-69% of herbicidal efficacy or phytotoxicity); False pimpernel pre (herbicidal efficacy grade) [2, 10]: 4 (90%-100% of herbicidal efficacy or phytotoxicity); Burnyard grass post (herbicidal efficacy grade) [3, 11]: 1 (1%-39% of herbicidal efficacy or phytotoxicity); Bulrush post (herbicidal efficacy grade) [4, 11]: 2 (40%-69% of herbicidal efficacy or phytotoxicity); False pimpernel post (herbicidal efficacy grade) [5, 11]: 3 (70%-89% of herbicidal efficacy or phytotoxicity); Phytotoxicity to paddy rice (grade) [6, 12]: 0 (0% of herbicidal efficacy or phytotoxicity)
O=C1OCCN1Cc1ccccc1NS(=O)(=O)C(F)(F)F [Compound 1-1] | – | – | – | – | – | – | 4 (90%-100% of herbicidal efficacy or phytotoxicity) | 4 (90%-100% of herbicidal efficacy or phytotoxicity) | 4 (90%-100% of herbicidal efficacy or phytotoxicity) | 4 (90%-100% of herbicidal efficacy or phytotoxicity) | 4 (90%-100% of herbicidal efficacy or phytotoxicity) | 1 (1%-39% of herbicidal efficacy or phytotoxicity) | –
CCCC1COC(=O)N1Cc1ccccc1NS(=O)(=O)C(F)(F)F (stereo not drawn) [Compound 1-7] | 4 (90%-100% of herbicidal efficacy or phytotoxicity) | 4 (90%-100% of herbicidal efficacy or phytotoxicity) | 1 (1%-39% of herbicidal efficacy or phytotoxicity) | 4 (90%-100% of herbicidal efficacy or phytotoxicity) | 2 (40%-69% of herbicidal efficacy or phytotoxicity) | 1 (1%-39% of herbicidal efficacy or phytotoxicity) | – | – | – | – | – | – | –
CCCC1COC(=O)N1Cc1ccccc1N(C(=O)OCC(C)C)S(=O)(=O)C(F)(F)F (stereo not drawn) [Compound 1-8] | 4 (90%-100% of herbicidal efficacy or phytotoxicity) | 4 (90%-100% of herbicidal efficacy or phytotoxicity) | 4 (90%-100% of herbicidal efficacy or phytotoxicity) | 4 (90%-100% of herbicidal efficacy or phytotoxicity) | 2 (40%-69% of herbicidal efficacy or phytotoxicity) | 0 (0% of herbicidal efficacy or phytotoxicity) | – | – | – | – | – | – | –
CC(C)C1COC(=O)N1Cc1ccccc1NS(=O)(=O)C(F)(F)F (stereo not drawn) [Compound 1-9] | 4 (90%-100% of herbicidal efficacy or phytotoxicity) | 4 (90%-100% of herbicidal efficacy or phytotoxicity) | 4 (90%-100% of herbicidal efficacy or phytotoxicity) | 4 (90%-100% of herbicidal efficacy or phytotoxicity) | 2 (40%-69% of herbicidal efficacy or phytotoxicity) | 2 (40%-69% of herbicidal efficacy or phytotoxicity) | – | – | – | – | – | – | –
CC(C)COC(=O)N(c1ccccc1CN1C(=O)OCC1C(C)C)S(=O)(=O)C(F)(F)F (stereo not drawn) [Compound 1-10] | – | – | – | – | – | – | 4 (90%-100% of herbicidal efficacy or phytotoxicity) | 4 (90%-100% of herbicidal efficacy or phytotoxicity) | 4 (90%-100% of herbicidal efficacy or phytotoxicity) | 4 (90%-100% of herbicidal efficacy or phytotoxicity) | 4 (90%-100% of herbicidal efficacy or phytotoxicity) | 1 (1%-39% of herbicidal efficacy or phytotoxicity) | –
CCCCC1COC(=O)N1Cc1ccccc1NS(=O)(=O)C(F)(F)F (stereo not drawn) [Compound 1-11] | 4 (90%-100% of herbicidal efficacy or phytotoxicity) | 2 (40%-69% of herbicidal efficacy or phytotoxicity) | 0 (0% of herbicidal efficacy or phytotoxicity) | 3 (70%-89% of herbicidal efficacy or phytotoxicity) | 1 (1%-39% of herbicidal efficacy or phytotoxicity) | 0 (0% of herbicidal efficacy or phytotoxicity) | – | – | – | – | – | – | –
